Results: PMC7544826 (Communications Biology, 2020)

Test system: Wnt3a-dependent TCF/LEF activation
Assay: TOP-FLASH luciferase assay without the addition of Notum (control)
Assay type: cell-based
Details: concentrations up to 1 mM, no Notum added
Protocol: . OPTS is a common lipase substrate with an octanoyl lipid linked to a fluorescent moiety. It is not a natural Notum substrate; however, it can be used to quantify the enzymatic activity of purified Notum protein[23],[25],[28]. […]. […]. […]. The stable HEK293 STF cell line[31] carrying the Super Top Flash firefly luciferase reporter was split into 96-well plates and transfected 24 h later with a constitutive Renilla luciferase plasmid (pRL-TK, Promega) at 20 ng DNA per well using Lipofectamine 2000 (Life Technologies, UK). The media were replaced with test media 16 h later. […] The firefly and Renilla luciferase activities were measured 24 h later with Dual-Glo luciferase reporter assay system (Promega, Madison, WI) using an Ascent Lunimoskan luminometer (Labsystems). The firefly luciferase activity was normalized to Renilla luciferase activity (relative light unit, RLU). Luciferase reporter assays were performed in triplicate.
Supplementary Figure 1. […].

Q: Cn1c(=O)c2c(ncn2C)n(C)c1=O [caffeine, 1,3,7-trimethylxanthine] was tested. Which “Effect on Wnt3a-induced luciferase activity without Notum” value did it give?
A: did not affect luciferase activity
